Several values for one entry are separate records, joined by “and”; a condition that tells them apart may be missing. Equal values may be shown once.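 Assay format: 96-well plates, 48-hour exposure. The concentration for 50% growth inhibition is given as GI50. TGI: total growth inhibition.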
Columns and labels:
Test in all cases: NCI-60 cell line screen, 48 h
SNB-75 CNS = system: SNB-75 CNS
M14 melanoma = system: M14 melanoma
BT-549 breast = system: BT-549 breast
UO-31 renal = system: UO-31 renal
KM12 colon = system: KM12 colon
A498 renal = system: A498 renal
HCT-116 colon = system: HCT-116 colon
EKVX NSCLC = system: EKVX NSCLC
RXF 393 renal = system: RXF 393 renal
MCF7 breast = system: MCF7 breast

SMILES | GI50 (SNB-75 CNS) [µM] | TGI (SNB-75 CNS) [µM] | GI50 (M14 melanoma) | TGI (M14 melanoma) | GI50 (BT-549 breast) | TGI (BT-549 breast) | GI50 (UO-31 renal) [µM] | TGI (UO-31 renal) | GI50 (KM12 colon) | TGI (KM12 colon) | GI50 (A498 renal) [µM] | TGI (A498 renal) [µM] | GI50 (HCT-116 colon) [µM] | TGI (HCT-116 colon) | GI50 (EKVX NSCLC) | TGI (EKVX NSCLC) | GI50 (RXF 393 renal) | TGI (RXF 393 renal) [µM] | GI50 (MCF7 breast) [µM] | TGI (MCF7 breast)
CNC(=O)c1sc(-n2cnc3cc(OC)c(OC)cc32)cc1OCc1ccccc1C(F)(F)F | > 15.8 | > 25 | > 25 µM | > 25 µM | > 25 µM | > 25 µM | 12 | > 25 µM | > 25 µM | > 25 µM | 1.39 | > 24 | > 25 | > 25 µM | > 25 µM | > 25 µM | > 25 µM | > 25 | > 25 | > 25 µM
COc1cc(F)c(F)c(Nc2ccc(I)cc2F)c1NS(=O)(=O)C1(CC(O)CO)CC1 (centres undefined) | 6.29 | 49.2 | 3.04 µM | 15.5 µM | 14.6 µM | 35.2 µM | 10.4 | 40.2 µM | 13.3 µM | 30.9 µM | 10.1 | 28.1 | 13.5 | 31.6 µM | 13.4 µM | 57.2 µM | 5.78 µM | 19.7 | 16.6 | 43.7 µM
CCc1ccc([OH2+])c(C(=O)[O-])c1.CCc1ccc([OH2+])c(C(=O)[O-])c1.CCc1ccc([OH2+])c(C(=O)[O-])c1.CCc1ccc([OH2+])c(C(=O)[O-])c1.[Cu+2].[Cu+2] | 40.6 | > 89.3 | > 100 µM | > 100 µM | 78.6 µM | > 100 µM | > 100 | > 100 µM | 53.6 µM | > 100 µM | 21.2 | 40.5 | > 100 | > 100 µM | > 100 µM | > 100 µM | > 46.8 µM | > 94.5 | 35 | > 100 µM
CSc1ccc(-c2cn3ccsc3n2)cc1 | 7.76 | 74 | 18.1 µM | > 100 µM | > 60.5 µM | > 100 µM | 7.95 | > 100 µM | 24.4 µM | > 100 µM | 55.6 | > 100 | 3.6 | > 100 µM | 36.2 µM | > 100 µM | 5.19 µM | > 92 | 1.33 | > 100 µM
COc1cc2c3c(c4cc(OC)c(OC)cc4c2cc1OC)CN1CCC[C@H]1C3 | 0.0084 | 0.0663 | 0.0502 µM and < 0.0142 µM | 2.15 µM and 1.21 µM |  | 0.0849 µM and 0.657 µM |  | 1.66 µM and 1 µM | 0.0452 µM and < 0.01 µM | 1.22 µM |  | 0.0368 |  | 1.75 µM and 1.04 µM | 0.0216 µM and < 0.01 µM | 0.285 µM and 0.284 µM | 0.00487 µM | 0.0931 |  | 0.127 µM and 0.318 µM
N#Cc1cnn(C(=O)c2nn(-c3ccc(Cl)cc3)cc2O)c1N | 0.248 | 17.8 | 0.462 µM | 8.01 µM | 0.287 µM | 7.17 µM | 0.292 | 5.81 µM | 0.374 µM | 22.2 µM | 0.174 | 0.626 | 0.26 | 10.9 µM | 0.378 µM | 10.4 µM | 0.161 µM | 3.91 | 0.373 | 10.5 µM
O=C1OC(c2ccccc2)=N/C1=C\c1ccccc1 |  | > 100 |  | > 100 µM | 68.9 µM and 26.8 µM | > 100 µM |  | > 100 µM |  | > 100 µM and 62.2 µM |  | > 100 |  | > 100 µM |  | > 100 µM | > 100 µM and 43 µM | > 100 |  | > 100 µM
COc1ccc(/C(=C(\c2ccccc2)[N+](=O)[O-])c2ccc(OCCN3CCCC3)cc2)cc1 | 2.24 | 8.17 | 1.82 µM | 3.47 µM | 4.51 µM | 17.6 µM | 1.12 | 4.2 µM | 2.16 µM | 12.4 µM | 2.19 | 10.9 | 2.46 | 13.5 µM | 7.29 µM | 21.5 µM | 1.65 µM | 3.76 | 0.194 | 3.63 µM
CN1CCN(Cc2ccc(NC(=O)c3cncc(C#Cc4c(N)ncc5ccccc45)c3)cc2C(F)(F)F)CC1 | 0.872 | 1.61 | 0.203 µM | 0.885 µM | 1.62 µM | 4.7 µM | 0.541 | 1.16 µM | 0.005 µM | 0.618 µM | 0.676 | 1.35 | 0.257 | 0.892 µM | 0.572 µM | 1.26 µM | 0.708 µM | 1.39 | 0.198 | 0.853 µM
O=C(/C=C/c1ccco1)Nc1ncc(Cc2cc(Cl)ccc2Cl)s1 | 0.0261 | 0.433 | 0.0373 µM | > 100 µM | 0.189 µM |  | 0.162 | > 100 µM | 0.0419 µM | > 100 µM | 0.0245 | 3.96 | 0.0509 | > 100 µM | 0.161 µM | > 100 µM | 0.0328 µM | 0.303 | 0.0359 | > 100 µM
CC1CCc2c(C(=O)Nc3ncc(Cc4cccc([N+](=O)[O-])c4)s3)csc2C1 (centres undefined) | 0.369 | 1.66 | 0.4 µM | > 100 µM | 1.25 µM | > 100 µM | 0.815 | > 100 µM | 0.442 µM | > 100 µM | 0.267 | 0.864 | 0.468 | > 100 µM | 1.11 µM | > 100 µM | 0.938 µM | 4.02 | 0.268 | > 100 µM
COc1cc(OC)c(/C=C/S(=O)(=O)Cc2ccc(OC)c(N)n2)c(OC)c1 |  | > 100 | < 0.01 µM | > 100 µM | < 0.01 µM | > 100 µM | < 0.0126 | > 100 µM | < 0.01 µM | > 100 µM | < 0.01 |  | < 0.01 | > 100 µM | 0.0278 µM | > 100 µM | < 0.01 µM | > 100 | < 0.01 | > 100 µM

— PubChem BioAssay (NCI)
